Active and inactive are the calls of the source. The calls are words filed in the database; no cut-off is given here.
What was measured:
Homo sapiens [1] = species on record: Homo sapiens; test: Inhibition of human TMPK expressed in Escherichia coli at 1 mM by spectrophotometric assay
Homo sapiens [2] = species on record: Homo sapiens; test: Inhibition of human TMPK expressed in Escherichia coli by spectrophotometric assay

Row | Km (Homo sapiens [2]) [µM] | Structure (SMILES) | Activity (Homo sapiens [1])
1 |  | Cc1cn([C@@H]2C[C@@H](CNC(=O)NC[C@H]3C[C@H](n4cc(C)c(=O)[nH]c4=O)O[C@@H]3CO)[C@H](CO)O2)c(=O)[nH]c1=O | inactive
2 | 5 | Cc1cn([C@H]2C[C@H](O)[C@@H](COP(=O)(O)O)O2)c(=O)[nH]c1=O | 
